# Measured values taken from patent publication US20250333410A1, “COMPOUND FOR INHIBITING OR DEGRADING BCL6 AND USE THEREOF IN PHARMACEUTICS” (XIZANG HAISCO PHARMACEUTICAL CO., LTD., priority 2022, published 2025).
# Biological target: Bcl6 (Homo sapiens (Human), UniProt P41182)
# Test: Bcl-6 protein degradation experiment in Farage cells
# Format: cell-based
# Conditions: 24 hours
# Procedure: 2. Bcl-6 Protein Degradation Experiment in Farage Cells
# Farage cells purchased from ATCC were placed in an RPMI-1640 complete medium (containing 10% fetal bovine serum, 100 U/mL penicillin and 100 μg/mL streptomycin) and cultured at 37° C. and 5% CO2. The cells in the logarithmic growth phase were collected, and the cell suspension was adjusted to an appropriate density with the culture medium and added to a 6-well cell culture plate at a volume of 1 mL/well. The compounds to be tested were prepared to 2-fold the final concentration, 1 mL of the compounds at different concentrations were added to administration wells, a medium containing 0.2% DMSO was added to control wells, and the plate was incubated at 37° C. for 24 hours. The cells were collected into a 1.5 mL centrifuge tube, 25 μL of RIPA lysis buffer (containing 1× protease inhibitor cocktail) was added, and the cells were lysed on ice for 15 minutes and centrifuged at 12000 rpm/min at 4° C. for 10 minutes. The supernatant was collected and the protein content was determined using the BCA method. The protein sample to be tested was diluted to 0.8 mg/mL, Bcl6 was detected using a fully automated protein expression quantitative analyzer (ProteinSimple), and the internal reference protein was R-actin (both antibodies were from CST). The software (Compass for SW) of the fully automated protein expression quantitative analyzer was used to process the raw data and calculate the peak area and the Bcl6 expression rate relative to the control group. DC50 values were calculated using a four-parameter non-linear fitting model in Graphpad 8.3.0 software.
row,SMILES,DC50 [nM]
1,CNC(=O)COc1cc2cc(Nc3nc(N4CCC(CN5CCN(c6cccc7c6n(C)c(=O)n7C6CCC(=O)NC6=O)CC5)CC4)ncc3Cl)ccc2n(C)c1=O (stereo not drawn) [Compound 9],< 10
2,CC(=O)COc1cc2cc(Nc3nc(N4CCC(CN5CCN(c6cccc7c6n(C)c(=O)n7C6CCC(=O)NC6=O)CC5)CC4)ncc3Cl)ccc2n(C)c1=O (stereo not drawn) [Compound 10],< 10
3,CNC(=O)COc1cc2cc(Nc3nc(N4CCN(CC5CCN(Cc6cccc7c6n(C)c(=O)n7C6CCC(=O)NC6=O)CC5)CC4)ncc3Cl)ccc2n(C)c1=O (stereo not drawn) [Compound 12],< 10
4,CC(=O)COc1cc2cc(Nc3nc(N4CCN(CC5CCN(c6cc(F)c(C7CCC(=O)NC7=O)c(F)c6)CC5)CC4)ncc3Cl)ccc2n(C)c1=O (stereo not drawn) [Compound 22],< 10
5,CNC(=O)COc1cc2cc(Nc3nc(N4CCN(CC5CCN(c6ccc(C7CCC(=O)NC7=O)cn6)CC5)CC4)ncc3Cl)ccc2n(C)c1=O (stereo not drawn) [Compound 39],< 10
6,[2H]C([2H])([2H])NC(=O)COc1cc2cc(Nc3nc(N4CCN(CC5CCN(c6ccc(C7CCC(=O)NC7=O)cc6)CC5)CC4)ncc3Cl)ccc2n(C)c1=O (stereo not drawn) [Compound 47],< 10
7,C#CCn1c(=O)c(OCC(=O)NC)cc2cc(Nc3nc(N4CCC(CN5CCN6c7ccc(C8CCC(=O)NC8=O)cc7CCC6C5)CC4)ncc3Cl)ccc21 (stereo not drawn) [Compound 50],< 10
8,CNC(=O)COc1cc2cc(Nc3nc(N4CCC(CN5CCN6c7ccc(C8CCC(=O)NC8=O)cc7CCC6C5)CC4)ncc3Cl)ccc2n(C2CC2)c1=O (stereo not drawn) [Compound 51],< 10
9,CNC(=O)COc1cc2cc(Nc3nc(N4CCC(O[C@H]5C[C@H](N6CCN(c7ccc(C8CCC(=O)NC8=O)cc7)CC6)C5)CC4)ncc3Cl)ccc2n(C(C)C)c1=O (stereo partly drawn) [Compound 95],< 10
10,CNC(=O)COc1cc2cc(Nc3nc(N4CCC(O[C@H]5C[C@H](N6CCN(c7ccc(C8CCC(=O)NC8=O)c(F)c7)CC6)C5)CC4)ncc3Cl)ccc2n(C(C)C)c1=O (stereo partly drawn) [Compound 96],< 10
11,CC(=O)COc1cc2cc(Nc3nc(N4CCC(N5CCN(c6ccc(NC7CCC(=O)NC7=O)cc6F)CC5)C(F)(F)C4)ncc3Cl)ccc2n(C)c1=O (stereo not drawn) [Trifluoroacetate of compound 5],< 10
12,CNC(=O)COc1cc2cc(Nc3nc(N4CCC(N5CCN(c6ccc(NC7CCC(=O)NC7=O)cc6F)CC5)C(F)(F)C4)ncc3Cl)ccc2n(C)c1=O (stereo not drawn) [Trifluoroacetate of compound 7],< 10
13,CNC(=O)COc1cc2cc(Nc3nc(N4CCC(N(C)C5CCN(c6cccc7c6n(C)c(=O)n7C6CCC(=O)NC6=O)CC5)CC4)ncc3Cl)ccc2n(C)c1=O (stereo not drawn) [Trifluoroacetate of compound 11],< 10
14,CC(=O)COc1cc2cc(Nc3nc(N4CCN(c5ccc(C6CCC(=O)NC6=O)cc5)CC4)ncc3Cl)ccc2n(C)c1=O (stereo not drawn) [Trifluoroacetate of compound 17],< 10
15,CNC(=O)COc1cc2cc(Nc3nc(N4CCN(c5ccc(C6CCC(=O)NC6=O)cc5)CC4)ncc3Cl)ccc2n(C)c1=O (stereo not drawn) [Trifluoroacetate of compound 20],< 10
16,CNC(=O)COc1cc2cc(Nc3nc(N4CCN(CC5CN(c6ccc(C7CCC(=O)NC7=O)cc6F)C5)CC4)ncc3Cl)ccc2n(C)c1=O (stereo not drawn) [Trifluoroacetate of compound 40],< 10
17,CNC(=O)COc1cc2cc(Nc3nc(N4CCN(CC5CCN(c6ccc(C7CCC(=O)NC7=O)cc6F)CC5)CC4)ncc3Cl)ccc2n(C)c1=O (stereo not drawn) [Trifluoroacetate of compound 41],< 10

row,SMILES,DC50 [nM]
1,CNC(=O)COc1cc2cc(Nc3nc(N4CCN(CC5CCN(c6ccc(C7CCC(=O)NC7=O)cc6)CC5)CC4)ncc3Cl)ccc2n(C(C)C)c1=O (stereo not drawn) [Trifluoroacetate of compound 42],< 10
2,C#CCn1c(=O)c(OCC(=O)NC)cc2cc(Nc3nc(N4CCN(CC5CCN(c6ccc(C7CCC(=O)NC7=O)c(F)c6)CC5)CC4)ncc3Cl)ccc21 (stereo not drawn) [Trifluoroacetate of compound 52],< 10
3,CNC(=O)COc1cc2cc(Nc3nc(N4CCN(CC5CCN(c6ccc(C7CCC(=O)NC7=O)c(F)c6)CC5)CC4)ncc3Cl)ccc2n(C2CC2)c1=O (stereo not drawn) [Trifluoroacetate of compound 53],< 10
4,CNC(=O)COc1cc2cc(Nc3nc(N4CCC(CN5CCN6c7ccc(C8CCC(=O)NC8=O)cc7CCC6C5)CC4)ncc3Cl)ccc2n(C(C)C)c1=O (stereo not drawn) [Trifluoroacetate of compound 54],< 10
5,CNC(=O)COc1cc2cc(Nc3nc(N4CCN(CC5CCN(c6cccc(C7CCC(=O)NC7=O)c6)CC5)CC4)ncc3Cl)ccc2n(C)c1=O (stereo not drawn) [Trifluoroacetate of compound 55],< 10
6,CCn1c(=O)c(OCC(=O)NC)cc2cc(Nc3nc(N4CCC(O[C@H]5C[C@H](N6CCN7c8cc(F)c(C9CCC(=O)NC9=O)cc8CC[C@H]7C6)C5)CC4)ncc3Cl)ccc21 (stereo partly drawn) [Trifluoroacetate of compound 61],< 10
7,CCn1c(=O)c(OCC(=O)NC)cc2cc(Nc3nc(N4CCN(CC5CCN(c6ccc(C7CCC(=O)NC7=O)c(F)c6)CC5)CC4)ncc3Cl)ccc21 (stereo not drawn) [Trifluoroacetate of compound 68],< 10
8,CCn1c(=O)c(OCC(=O)NC)cc2cc(Nc3nc(N4CCN(CC5CCN(c6ccc(C7CCC(=O)NC7=O)cc6)CC5)CC4)ncc3Cl)ccc21 (stereo not drawn) [Trifluoroacetate of compound 69],< 10
9,CNC(=O)COc1cc2cc(Nc3nc(N4CCC(O[C@H]5C[C@H](N6CCN7c8cc(F)c(C9CCC(=O)NC9=O)cc8CC[C@@H]7C6)C5)CC4)ncc3Cl)ccc2n(C(C)C)c1=O (stereo partly drawn) [Trifluoroacetate of compound 70],< 10
10,[2H]C([2H])([2H])NC(=O)COc1cc2cc(Nc3nc(N4CCC(O[C@H]5C[C@H](N6CCN7c8cc(F)c(C9CCC(=O)NC9=O)cc8CC[C@H]7C6)C5)CC4)ncc3Cl)ccc2n(C(C)C)c1=O (stereo partly drawn) [Trifluoroacetate of compound 84],< 10
11,[2H]C([2H])([2H])NC(=O)COc1cc2cc(Nc3nc(N4CCC(CN5CCN6c7cc(F)c(C8CCC(=O)NC8=O)cc7CC[C@H]6C5)CC4)ncc3Cl)ccc2n(C(C)C)c1=O (stereo partly drawn) [Trifluoroacetate of compound 85],< 10
12,[2H]C([2H])([2H])n1c(=O)c(OCC(=O)NC)cc2cc(Nc3nc(N4CCC(O[C@H]5C[C@H](N6CCN7c8cc(F)c(C9CCC(=O)NC9=O)cc8CC[C@@H]7C6)C5)CC4)ncc3Cl)ccc21 (stereo partly drawn) [Trifluoroacetate of compound 90],< 10
13,[2H]C([2H])([2H])NC(=O)COc1cc2cc(Nc3nc(N4CCC(O[C@H]5C[C@H](N6CCN7c8cc(F)c(C9CCC(=O)NC9=O)cc8CC[C@@H]7C6)C5)CC4)ncc3Cl)ccc2n(C([2H])([2H])[2H])c1=O (stereo partly drawn) [Trifluoroacetate of compound 91],< 10
14,[2H]C([2H])([2H])NC(=O)COc1cc2cc(Nc3nc(N4CCC(O[C@H]5C[C@H](N6CCN7c8cc(F)c(C9CCC(=O)NC9=O)cc8CC[C@@H]7C6)C5)CC4)ncc3Cl)ccc2n(C)c1=O (stereo partly drawn) [Trifluoroacetate of compound 92],< 10
15,[2H]C([2H])([2H])NC(=O)COc1cc2cc(Nc3nc(N4CCC(O[C@H]5C[C@H](N6CCN7c8cc(F)c(C9CCC(=O)NC9=O)cc8CC[C@@H]7C6)C5)CC4)ncc3Cl)ccc2n(C(C)C)c1=O (stereo partly drawn) [Trifluoroacetate of compound 93],< 10
16,CNC(=O)COc1cc2cc(Nc3nc(N4CCC(F)(CN5CCN6c7cc(F)c(C8CCC(=O)NC8=O)cc7CC[C@H]6C5)CC4)ncc3Cl)ccc2n(C(C)C)c1=O (stereo partly drawn) [Trifluoroacetate of compound 94],< 10
